Experimental data as given in patent US20080227813A1, “Pharmaceutical compositions and methods for treating diseases associated with neurodegeneration” (priority 2006, published 2008).
Where two headings read alike, the source gives them in different places.

Tests used:
Beagle dogs = test: 110-day repeated dose oral toxicity study in dogs; assay type: in vivo, dog
Procedure: Evaluation […] involving control and three dose groups of 50, 80 and 160 mg/kg/day (equal to 31.0 mg/kg, 49.6 mg/kg and 99.2 mg/kg free base).

patients with ALS = conditions: high dose
Procedure: A clinical trial was conducted to assess the safety and tolerability of Compound I, at three dosages (75, 150, and 300 mg/day) as compared with placebo over 12 weeks of treatment in 80 patients with ALS. It was also conducted to determine the pharmacokinetic characterization of Compound I in serum, as well as cerebrospinal fluid (CSF) penetration, in a subset of the 80 patients participating in the study. This information was correlated with safety measures.
Methodology: This study was a multicenter, double-blind, placebo-controlled study of outpatients with ALS. Eighty subjects at 8-10 centers were enrolled. Subjects received placebo, 25 mg tid, 50 mg tid or 100 mg tid Compound I daily. All 80 subjects received treatment to determine safety and tolerability after 12 weeks of daily treatment. Follow-up visits occurred at 2, 4, 6, 8, 10, 12, and 16 weeks. A subset of participants were admitted to the General Clinical Research Center (GCRC), clinical research center or other department for serum pharmacokinetic studies at Baseline and Week 4, with additional trough serum sampling at Weeks 2, 8, and 12. Cerebrospinal fluid (CSF) penetration was only be evaluated at Week 4.

CRL:NMRI BR mice = test: Acute oral toxicity in mice; assay type: in vivo; conditions: mouse
Procedure: All animal toxicology studies were performed at Toxicological Research Centre (Veszprém, Hungary) using protocols compliant with OECD guidelines and Principles of Good Laboratory Practice. Following is a summary of the studies conducted.
Acute oral toxicity studies were performed in rats (CRL(WI:)BR) and in mice (CRL: NMRI BR). A control and five dose groups were involved in the rat study at dose levels of 2000 mg/kg, 2600 mg/kg, 3400 mg/kg, 4400 mg/kg and 5700 mg/kg (equal to 1241 mg/kg, 1613 mg/kg, […], 2729 mg/kg and 3535 mg/kg free base, n=5 animals/sex/group).

[1] = human, in vivo
[2] = tested on: Salmonella typhimurium strains TA98, TA100, TA1537, TA1535 and Escherichia coli WP2 uvrA; test: Genotoxicity in bacterial assays; assay type: cell-based; conditions: up to 5000 μg test item/plate, with and without rat liver fraction
[3] = rat, in vivo
CRL:(WI)BR rats = test: Acute intravenous toxicity in rats; assay type: in vivo; conditions: rat
Procedure: A control and five dose groups were involved in the rat study at dose levels of 150 mg/kg, 200 mg/kg, 250 mg/kg, 300 mg/kg and 350 mg/kg (equal to 93 mg/kg, 124 mg/kg, 155 mg/kg, 186 mg/kg and 217 mg/kg free base, n=5 animals/sex/group).

[4] = dog, 50, 80, 160 mg/kg/day oral

[O-][n+]1cccc(/C(Cl)=N/OC[C@H](O)CN2CCCCC2)c1 [Compound I, N-[2-hydroxy-3-(1-piperidinyl)-propoxy]-pyridine-1-oxide-3-carboximidoyl chloride]
ECG and ophthalmological alterations (Beagle dogs; [4]): No ECG and opthalmological alterations
mortality (Beagle dogs; [4]): No animals died
NOEL (Beagle dogs; dog, both sexes, oral once daily for 112 days): 50 mg/kg/day
amount of metabolite No. 3 (dog liver cells): 4.9 % of the total radioactivity
amount of metabolite No. 4 (dog liver cells): 3.3 % of the total radioactivity
clearance (dog liver cells; dog, hepatocytes): 0.055 mL/h
t1/2 (dog liver cells; dog, hepatocytes): 12.6 h
effect on ALSFRS-R (patients with ALS; patients also treated with riluzole, not statistically significant): may improve ALSFRS-R
effect on average ALSFRS-R score (patients with ALS; patients not treated with riluzole): no effect
Oral LD50 value (CRL:NMRI BR mice; female, by base): >3101 - by base mg/kg
Oral LD50 value (CRL:NMRI BR mice; female, by citrate): >5000 - by citrate mg/kg
Oral LD50 value (CRL:NMRI BR mice; male, by base): >3101 - by base mg/kg
Oral LD50 value (CRL:NMRI BR mice; male, by citrate): >5000 - by citrate mg/kg
route of removal [1]: mostly removed unchanged in urine
Mean t1/2 values ([1]; po): 2.5 to 6.2 h
Tmax values ([1]; po): 0.5 to 1.1 h
t1/2 ([1]; po): 4 h
AUC(0-t), GeoMean ([1]; po, 50 mg): 590 ng·h/mL
AUC(0-t), Mean ([1]; po, 50 mg): 600 ng·h/mL
AUC, GeoMean ([1]; po, 50 mg): 640 ng·h/mL
AUC, Mean ([1]; po, 50 mg): 650 ng·h/mL
Cmax, GeoMean ([1]; po, 50 mg): 160 ng/mL
Cmax, Mean ([1]; po, 50 mg): 170 ng/mL
MRT, GeoMean ([1]; po, 50 mg): 3.4 h
MRT, Mean ([1]; po, 50 mg): 3.5 h
Tmax, GeoMean ([1]; po, 50 mg): 0.82 h
Tmax, Mean ([1]; po, 50 mg): 0.9 h
t½, GeoMean ([1]; po, 50 mg): 3 h
t½, Mean ([1]; po, 50 mg): 3.1 h
AUC(0-t), GeoMean ([1]; po, 100 mg): 1400 ng·h/mL
AUC(0-t), Mean ([1]; po, 100 mg): 1400 ng·h/mL
AUC, GeoMean ([1]; po, 100 mg): 1600 ng·h/mL
AUC, Mean ([1]; po, 100 mg): 1600 ng·h/mL
Cmax, GeoMean ([1]; po, 100 mg): 390 ng/mL
Cmax, Mean ([1]; po, 100 mg): 400 ng/mL
MRT, GeoMean ([1]; po, 100 mg): 3.7 h
MRT, Mean ([1]; po, 100 mg): 3.8 h
Tmax, GeoMean ([1]; po, 100 mg): 1 h
Tmax, Mean ([1]; po, 100 mg): 1.1 h
t½, GeoMean ([1]; po, 100 mg): 3.5 h
t½, Mean ([1]; po, 100 mg): 3.7 h
AUC(0-t), GeoMean ([1]; po, 200 mg): 2700 ng·h/mL
AUC(0-t), Mean ([1]; po, 200 mg): 2700 ng·h/mL
AUC, GeoMean ([1]; po, 200 mg): 2800 ng·h/mL
AUC, Mean ([1]; po, 200 mg): 2800 ng·h/mL
Cmax, GeoMean ([1]; po, 200 mg): 890 ng/mL
Cmax, Mean ([1]; po, 200 mg): 890 ng/mL
MRT, GeoMean ([1]; po, 200 mg): 3.7 h
MRT, Mean ([1]; po, 200 mg): 3.8 h
Tmax, GeoMean ([1]; po, 200 mg): 0.82 h
Tmax, Mean ([1]; po, 200 mg): 0.9 h
t½, GeoMean ([1]; po, 200 mg): 3.1 h
t½, Mean ([1]; po, 200 mg): 3.1 h
AUC(0-t), GeoMean ([1]; po, 400 mg): 6200 ng·h/mL
AUC(0-t), Mean ([1]; po, 400 mg): 6300 ng·h/mL
AUC, GeoMean ([1]; po, 400 mg): 6300 ng·h/mL
AUC, Mean ([1]; po, 400 mg): 6400 ng·h/mL
Cmax, GeoMean ([1]; po, 400 mg): 1800 ng/mL
Cmax, Mean ([1]; po, 400 mg): 1800 ng/mL
MRT, GeoMean ([1]; po, 400 mg): 4.5 h
MRT, Mean ([1]; po, 400 mg): 4.5 h
Tmax, GeoMean ([1]; po, 400 mg): 0.82 h
Tmax, Mean ([1]; po, 400 mg): 0.9 h
t½, GeoMean ([1]; po, 400 mg): 4 h
t½, Mean ([1]; po, 400 mg): 4.1 h
AUC(0-t), GeoMean ([1]; po, 600 mg): 8900 ng·h/mL
AUC(0-t), Mean ([1]; po, 600 mg): 9100 ng·h/mL
AUC, GeoMean ([1]; po, 600 mg): 9000 ng·h/mL
AUC, Mean ([1]; po, 600 mg): 9200 ng·h/mL
Cmax, GeoMean ([1]; po, 600 mg): 2900 ng/mL
Cmax, Mean ([1]; po, 600 mg): 3000 ng/mL
MRT, GeoMean ([1]; po, 600 mg): 3.9 h
MRT, Mean ([1]; po, 600 mg): 4 h
Tmax, GeoMean ([1]; po, 600 mg): 0.5 h
Tmax, Mean ([1]; po, 600 mg): 0.5 h
t½, GeoMean ([1]; po, 600 mg): 4.2 h
t½, Mean ([1]; po, 600 mg): 4.3 h
AUC(0-t), GeoMean ([1]; po, 800 mg): 12000 ng·h/mL
AUC(0-t), Mean ([1]; po, 800 mg): 12000 ng·h/mL
AUC, GeoMean ([1]; po, 800 mg): 12000 ng·h/mL
AUC, Mean ([1]; po, 800 mg): 12000 ng·h/mL
Cmax, GeoMean ([1]; po, 800 mg): 3700 ng/mL
Cmax, Mean ([1]; po, 800 mg): 3800 ng/mL
MRT, GeoMean ([1]; po, 800 mg): 4.1 h
MRT, Mean ([1]; po, 800 mg): 4.1 h
Tmax, GeoMean ([1]; po, 800 mg): 0.76 h
Tmax, Mean ([1]; po, 800 mg): 0.8 h
t½, GeoMean ([1]; po, 800 mg): 3.4 h
t½, Mean ([1]; po, 800 mg): 3.5 h
mutagenic activity [2]: no mutagenic activity
clearance [3]: higher than the hepatic clearance
time of peak serum values ([3]; po, 25.8 mg/kg): 15 min
Intravenous LD50 value (CRL:(WI)BR rats; female, by base): 215 (190-764) by base mg/kg
Intravenous LD50 value (CRL:(WI)BR rats; female, by citrate): 346 (306-1232) by citrate mg/kg
Intravenous LD50 value (CRL:(WI)BR rats; male, by base): 197 (168-301) by base mg/kg
Intravenous LD50 value (CRL:(WI)BR rats; male, by citrate): 317 (271-485) by citrate mg/kg
